Data as given in paper PMC9241945 (Microbiology Spectrum, 2022).

Biological target: T1, CTP synthase PyrG (Staphylococcus aureus, UniProt A6QIX1)
T1 construct: pyrG from S. aureus Newman in pET-28a, purified on Ni-NTA
Experiment: intrinsic fluorescence quenching titration
Assay type: binding

T1 sequence (A6QIX1 whole entry): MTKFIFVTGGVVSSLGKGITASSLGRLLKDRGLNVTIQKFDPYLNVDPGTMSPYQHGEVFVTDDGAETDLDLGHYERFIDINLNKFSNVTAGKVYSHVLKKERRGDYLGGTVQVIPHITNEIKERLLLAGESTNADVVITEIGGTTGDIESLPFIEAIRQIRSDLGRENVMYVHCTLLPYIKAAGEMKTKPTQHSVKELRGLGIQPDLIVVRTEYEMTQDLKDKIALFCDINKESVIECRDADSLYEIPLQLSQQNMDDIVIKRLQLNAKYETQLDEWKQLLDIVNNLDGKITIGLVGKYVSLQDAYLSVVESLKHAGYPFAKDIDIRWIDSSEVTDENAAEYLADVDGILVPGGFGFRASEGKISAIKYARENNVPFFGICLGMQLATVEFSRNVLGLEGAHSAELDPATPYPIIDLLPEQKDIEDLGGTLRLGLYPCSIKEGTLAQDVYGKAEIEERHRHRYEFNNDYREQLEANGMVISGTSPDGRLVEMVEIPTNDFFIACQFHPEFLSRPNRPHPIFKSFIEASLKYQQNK

Work on `Nc1ncnc2c1ncn2[C@@H]1O[C@H](COP(=O)(O)OP(=O)(O)OP(=O)(O)O)[C@@H](O)[C@H]1O` [ATP] yielded a Kd of 320 µM.
